Values of other authors in patent US9872864B2, “Sustained release composition of prostacyclin” (priority 2011, dated 2018).

Conditions: background statement

half-life: 4 h
SMILES: CCCCC[C@H](O)CC[C@@H]1[C@H]2Cc3cccc(OCC(=O)O)c3C[C@H]2C[C@H]1O [treprostinil]
